Here are results for 6 compounds from paper PMC7144209, “Design, synthesis and anticancer activity of naphthoquinone derivatives” (Journal of Enzyme Inhibition and Medicinal Chemistry, 2020).

Structures are written as SMILES.

One data set concerns SMMC-7721. Nature of the data set: MTT cell viability assay, SMMC-7721 cells. The format is cell-based. The settings on record: Homo sapiens, 48 h, n = 3. The method, then:
(§1) MGC-803, SGC-7901, U87 and SMMC-7721 cell lines were cultured in DMEM supplemented with 10% foetal bovine serum, 100 IU/mL penicillin/streptomycin. The cells were incubated in an atmosphere containing 5% CO2 at 37 °C.
(§2) MGC-803, SGC-7901, U87 and SMMC-7721 cells were plated in 96-well plate at 7000 per well. Cells were incubated with the different concentrations of the compounds for 48 h. Subsequently, MTT (0.5 mg/mL) were used to test the cell viability, then 150 μL DMSO was added to each well after cells were incubated for 4 h and the absorbance was measured at 492 nm.

In data set [1] the test system is SGC-7901, MGC-803, SMMC-7721, U-87 cell lines. Nature of the data set: MTT anticancer activity, summary in words over the cell line panel. The format is cell-based. The note with it: MTT assay. The method, then: as §2
Compounds 1–24 were detected for anticancer activities against SGC-7901, MGC-803, SMMC-7721, U-87 cell lines in vitro by the MTT assay, and ADM was used as the positive control. From Table 1, when the phenolic hydroxyls of naphthoquinone moiety were converted to ether, the activity was missing. […] So colony formation assay of this compound (Figure 4) was used to investigate the effect of it on cell proliferation in SGC-7901 cells. The experiment examined the ability for producing colonies after the cells were treated with the cell death agents[35]^,[36].

In another data set the test system is MGC-803. Nature of the data set: MTT cell viability assay, MGC-803 cells. The format is cell-based. The note with it: Homo sapiens, MGC-803, 48 h, n = 3. The method, then:
as §1, §2

The test system of another data set is SGC-7901. Nature of the data set: MTT cell viability assay, SGC-7901 cells. The format is cell-based, human. The note with it: Homo sapiens, SGC-7901, 48 h, n = 3. The method, then: as §1, §2
In a further data set the test system is L02. The data set is described as follows: MTT cell viability assay, L02 cells. The format is cell-based. The settings on record: Homo sapiens, n = 3.
Another data set has as its system U87. Nature of the data set: MTT cell viability assay, U87 cells. The format is cell-based. The note with it: Homo sapiens, U-87 MG, 48 h, n = 3. The method, then:
as §1, §2

In the case of `CC(C)=CCC(OC(=O)CCC(=O)Nc1ccc(OC(F)(F)F)cc1)C1=CC(=O)c2c(O)ccc(O)c2C1=O` (stereo not drawn) [Compound 13, 1-(5,8-dihydroxy-1,4-dioxo-1,4-dihydronaphthalen-2-yl)-4-methylpent-3-en-1-yl-4-oxo-4-((4-(trifluoromethoxy)phenyl)amino)butanoate], the IC50 with SMMC-7721 was found to be 16.9 ± 2.2 µM; in the data set on MGC-803, 10.2 ± 2.9 µM; in the data set on SGC-7901, 7.8 ± 3.7 µM; in the data set on L02, 15.8 ± 1.1 µM; in the data set with U87, 3.46 ± 0.31 µM. The “anticancer activity (in words)” value in data set [1] is on record as “good activity”.
Regarding `CC(C)=CCC(OC(=O)CCC(=O)NCCc1ccc(F)cc1)C1=CC(=O)c2c(O)ccc(O)c2C1=O` (stereo not drawn) [Compound 20, 1-(5,8-dihydroxy-1,4-dioxo-1,4-dihydronaphthalen-2-yl)-4-methylpent-3-en-1-yl 4-((4-fluorophenethyl)amino)-4-oxobutanoate], the IC50 came out at 18.6 ± 3.6 µM with SMMC-7721; 3.5 ± 1.4 µM with MGC-803; 13.3 ± 0.6 µM with SGC-7901; 12.3 ± 0.5 µM in the data set on L02; 5.2 ± 1.4 µM in the data set on U87. For the same compound, the “anticancer activity (in words)” value in data set [1] was “good activity”.
Consider `CC(C)=CCC(OC(=O)CCC(=O)NCCc1cccc(Cl)c1)C1=CC(=O)c2c(O)ccc(O)c2C1=O` (stereo not drawn) [Compound 17, 1-(5,8-dihydroxy-1,4-dioxo-1,4-dihydronaphthalen-2-yl)-4-methylpent-3-en-1-yl-4-((3-chlorophenethyl)amino)-4-oxobutanoate], for which the IC50 in the data set on SMMC-7721 stood at 15.9 ± 0.2 µM; in the data set on MGC-803 it was 6.7 ± 2.4 µM; with SGC-7901, 20.8 ± 0.5 µM; with L02 it was 11.4 ± 1.8 µM; in the data set with U87, 3.8 ± 1.7 µM. The “anticancer activity (in words)” value in data set [1] was “good activity”.
In the case of `CC(C)=CCC(OC(=O)CCC(=O)Nc1ccc(F)c(C(F)(F)F)c1)C1=CC(=O)c2c(O)ccc(O)c2C1=O` (stereo not drawn) [Compound 11, 1-(5,8-dihydroxy-1,4-dioxo-1,4-dihydronaphthalen-2-yl)-4-methylpent-3-en-1-yl-4-((4-fluoro-3-(trifluoromethyl)phenyl)amino)-4-oxobutanoate], the IC50 stood at 9.5 ± 0.8 µM in the data set on SMMC-7721; 8.4 ± 3.1 µM in the data set on MGC-803; 2.25 ± 1.5 µM with SGC-7901; 4 ± 0.1 µM in the data set with L02; 3.75 ± 0.77 µM in the data set with U87. In addition, the “anticancer activity (in words)” value in data set [1] is listed as “good activity”.
Take `CC(C)=CCC(OC(=O)CCC(=O)N1CCCc2ccccc21)C1=CC(=O)c2c(O)ccc(O)c2C1=O` (stereo not drawn) [Compound 9, 1-(5,8-dihydroxy-1,4-dioxo-1,4-dihydronaphthalen-2-yl)-4-methylpent-3-en-1-yl-4-(3,4-dihydroquinolin-1(2H)-yl)-4-oxobutanoate]: the IC50 in the data set on SMMC-7721 came out at 12.3 ± 0.1 µM; in the data set with MGC-803 it was 3.1 ± 0.1 µM; with SGC-7901, 8.6 ± 2.5 µM; in the data set with L02 it was 12.1 ± 0.8 µM; with U87, 4.45 ± 0.66 µM. For the same compound, in data set [1], the “anticancer activity (in words)” value was “good activity”.
As for `CC(C)=CCC(OC(=O)CCc1ccccc1)C1=CC(=O)c2c(O)ccc(O)c2C1=O` (stereo not drawn) [Compound 3, 1-(5,8-dihydroxy-1,4-dioxo-1,4-dihydronaphthalen-2-yl)-4-methylpent-3-en-1-yl-3-phenylpropanoate], the melting point is 60 °C. In the data set on SMMC-7721, the IC50 came to 15.6 ± 3.3 µM. The compound also had an IC50 in the data set with MGC-803 of 4.5 ± 1.1 µM. The same compound returned an IC50 in the data set on SGC-7901 of 10.6 ± 4.3 µM. The same compound had an IC50 in the data set on L02 of 13.6 ± 1.5 µM. For the same compound, it took 8 ± 0.85 µM to reach half-maximal inhibition in the data set on U87 (IC50).
